Experimental data as given in patent US20140094462A1, “SONIC HEDGEHOG MODULATORS” (priority 2009, published 2014).
Read-outs that look alike come from different tables or passages of the source.

Experiments:
[1] = rcm bond
ShhN protein = target: T1, ShhN protein (Homo sapiens, UniProt Q15465); assay: Surface Plasmon Resonance (SPR) protein binding assay on immobilized ShhN; conditions: SPR, Biacore T100, ShhN immobilized on CM4 chip, 25° C., compound 0.78 μM-25 μM; read-out: KD
T1 construct: auto-cleavage of full length Shh into an active 20 kD N-terminal fragment (ShhN); purchased R&D Systems
T1 sequence (Q15465 24-197 limits assumed, species assumed): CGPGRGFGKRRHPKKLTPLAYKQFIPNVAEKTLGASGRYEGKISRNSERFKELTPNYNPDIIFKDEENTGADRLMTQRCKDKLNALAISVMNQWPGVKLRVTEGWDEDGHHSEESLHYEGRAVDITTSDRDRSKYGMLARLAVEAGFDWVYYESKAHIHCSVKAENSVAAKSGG
Procedure: Biacore™ T100 (GE Healthcare, Uppsala, Sweden) was used to perform the experiments described herein. Sensor surface preparation and interaction analyses experiments were performed at 25° C.
Control surfaces were prepared similarly without protein derivatization and were utilized as a reference surfaces for compound binding experiments.
Zero concentration blank buffer cycles were included as negative control samples.
Data analysis was carried out using Biacore T100 evaluation software v1.1.1. […] Solvent correction was then applied as described previously.

C3H10T1/2 = assay: Induction of osteogenic differentiation (modulation of osteoblast differentiation); conditions: Mus musculus, C3H 10T1/2, read-out: IC50 (nM) C3H10T1/2
Description: Using assays previously described in Dwyer et al., J. Biol. Chem. 282, (2007), 8959-68 and Nakamura et al., Biochm. […] Res. Comm., 237 (1997) 465-9, select compounds of the invention were screened for their ability to modulate osteoblast differentiation.

SMILES: CC(C)(C)OC(=O)N[C@@H]1C/C=C/CCC(=O)OC[C@@H]2CCCN2C1=O
- ring closure, yield of all isomers ([1]; from C=CCCC(=O)OC[C@@H]1CCCN1C(=O)[C@@H](CC=C)NC(=O)OC(C)(C)C, toluene): 19%

SMILES: C[C@@H]1C/C=C/CCC(=O)N[C@H]2CCC[C@H]2OC1=O
- ring closure, yield of all isomers ([1]; from C=CCCC(=O)N[C@H]1CCC[C@H]1OC(=O)[C@H](C)CC=C, toluene): 32.4%

SMILES: C[C@@H]1C/C=C/CC(C)(C)C(=O)N[C@H](c2ccccc2)COC1=O [Example AY, (3R,11R,E)-6,6,11-trimethyl-3-phenyl-1-oxa-4-azacyclododec-8-ene-5,12-dione]
- Kd (ShhN protein): 1000 to 100000 nM
- ring closure, yield of all isomers ([1]; from C=CC[C@@H](C)C(=O)OC[C@H](NC(=O)C(C)(C)CC=C)c1ccccc1, toluene): 81%

SMILES: C[C@H]1CCCC[C@@H](CC(=O)NCc2ccc(Cl)cc2)C(=O)NC[C@@H](c2ccccc2)OC1=O [Example DB, N-(4-chlorobenzyl)-2-((2R,6S,11S)-11-methyl-5,12-dioxo-2-phenyl-1-oxa-4-azacyclododecan-6-yl)acetamide]
- Kd (ShhN protein): < 100 nM
- IC50 (C3H10T1/2): 100 to 1000 nM

SMILES: CC1C/C=C/CCC(=O)N[C@H](c2ccccc2)COC1 (stereo partly drawn) [(3R,E)-11-methyl-3-phenyl-1-oxa-4-azacyclododec-8-en-5-one]
- ring closure, yield of all isomers ([1]; from C=CCCC(=O)N[C@@H](COCC(C)CC=C)c1ccccc1, toluene, 2 steps): 0.5%

SMILES: C[C@@H]1COC(=O)[C@H](C)C/C=C/CCC(=O)N1
- ring closure, yield of all isomers ([1]; from C=CCCC(=O)N[C@H](C)COC(=O)[C@H](C)CC=C, toluene, 3 steps): 38%

SMILES: C[C@@H]1C/C=C/C[C@@H](N)C(=O)N[C@H](c2ccccc2)COC1=O [Example M, (3R,6R,11R,E)-6-amino-11-methyl-3-phenyl-1-oxa-4-azacyclododec-8-ene-5,12-dione]
- Kd (ShhN protein): 100 to 1000 nM
- IC50 (C3H10T1/2): > 100000 nM

SMILES: C[C@@H]1C/C=C/CCCC(=O)N[C@H](c2ccccc2)COC1=O
- ring closure, yield of all isomers ([1]; from C=CCCCC(=O)N[C@@H](COC(=O)[C@H](C)CC=C)c1ccccc1, toluene): 67%

SMILES: O=C(C[C@@H]1C/C=C/CCC(=O)N[C@H](c2ccc(Cl)cc2)COC1=O)NCc1ccc(Cl)cc1 [Example CX, N-(4-chlorobenzyl)-2-((3R,11S,E)-3-(4-chlorophenyl)-5,12-dioxo-1-oxa-4-azacyclododec-8-en-11-yl)acetamide]
- Kd (ShhN protein): < 100 nM
- IC50 (C3H10T1/2): 100 to 1000 nM

SMILES: C[C@@H]1C/C=C/C[C@@H](NC(=O)OCC2c3ccccc3-c3ccccc32)C(=O)N[C@H](c2ccccc2)COC1=O
- ring closure, yield of all isomers ([1]; from C=CC[C@@H](C)C(=O)OC[C@H](NC(=O)[C@@H](CC=C)NC(=O)OCC1c2ccccc2-c2ccccc21)c1ccccc1, DCM): 75%

SMILES: CC(=O)N[C@@H]1C/C=C/CCC(=O)N[C@H](c2ccccc2)COC1=O [Example B, N-((3R,11R,E)-5,12-dioxo-3-phenyl-1-oxa-4-azacyclododec-8-en-11-yl)acetamide]
- Kd (ShhN protein): < 100 nM
- IC50 (C3H10T1/2): < 100 nM

SMILES: C[C@@H]1C/C=C/C[C@H](C)C(=O)N[C@H](c2cccs2)COC1=O
- ring closure, yield of all isomers ([1]; from C=CC[C@@H](C)C(=O)OC[C@H](NC(=O)[C@@H](C)CC=C)c1cccs1, toluene): 74.7%

SMILES: C[C@H]1C/C=C/CCC(=O)N[C@@H](c2ccccc2)COC1=O
- ring closure, yield of all isomers ([1]; from C=CCCC(=O)N[C@H](COC(=O)[C@@H](C)CC=C)c1ccccc1, toluene, 25.0 °C, 16.0 h): 74%

SMILES: C[C@@H]1C/C=C/CCC(=O)N[C@@H]2c3ccccc3C[C@H]2OC1=O
- ring closure, yield of all isomers ([1]; from C=CCCC(=O)N[C@@H]1c2ccccc2C[C@H]1OC(=O)[C@H](C)CC=C, DCM): 61.8%

SMILES: CCN(CC)C(=O)C[C@@H]1C/C=C/CCC(=O)O[C@H](c2ccccc2)CNC1=O [Example DO, 2-((2R,6S,E)-5,12-dioxo-2-phenyl-1-oxa-4-azacyclododec-8-en-6-yl)-N,N-diethylacetamide]
- Kd (ShhN protein): < 100 nM
- IC50 (C3H10T1/2): 1000 to 100000 nM

SMILES: C[C@@H]1C/C=C/CCC(=O)O[C@H](c2ccccc2)[C@H](C)N(C)C1=O [Example BC, (2R,3S,6R,E)-3,4,6-trimethyl-2-phenyl-1-oxa-4-azacyclododec-8-ene-5,12-dione]
- Kd (ShhN protein): 1000 to 100000 nM
- ring closure, yield of all isomers ([1]; from C=CCCC(=O)O[C@H](c1ccccc1)[C@H](C)N(C)C(=O)[C@H](C)CC=C, toluene): 10%

SMILES: O=C1CC/C=C/CCC(=O)OCC(c2ccccc2)N1 (centres unmarked) [F]
- IC50 (C3H10T1/2): 100 to 1000 nM

SMILES: C[C@@H]1CCCCC(F)(F)C(=O)N[C@H](c2ccccc2)COC1=O [Example L, (3R,11R)-6,6-difluoro-11-methyl-3-phenyl-1-oxa-4-azacyclododecane-5,12-dione]
- IC50 (C3H10T1/2): > 100000 nM

SMILES: C[C@@H]1COC(=O)C(C)(C)C/C=C/CCC(=O)N1
- ring closure, yield of all isomers ([1]; from C=CCCC(=O)N[C@H](C)COC(=O)C(C)(C)CC=C, toluene, 3 steps): 8%

SMILES: C[C@H]1C/C=C/CCC(=O)N[C@H](c2ccccc2)COC1=O [Example BS, (3R,11S,E)-11-methyl-3-phenyl-1-oxa-4-azacyclododec-8-ene-5,12-dione]
- Kd (ShhN protein): > 100000 nM
- ring closure, yield of all isomers ([1]; from C=CCCC(=O)N[C@@H](COC(=O)[C@@H](C)CC=C)c1ccccc1, toluene): 44%

SMILES: CC1=CC[C@@H](C)C(=O)OC[C@@H](c2ccccc2)NC(=O)CC1
- ring closure, yield of all isomers ([1]; from C=CC[C@@H](C)C(=O)OC[C@H](NC(=O)CCC(=C)C)c1ccccc1, toluene, 3 steps): 26%

SMILES: C[C@@H]1[C@@H](c2ccccc2)OC(=O)CC/C=C/C[C@@H](NC(=O)OC(C)(C)C)C(=O)N1C
- ring closure, yield of all isomers ([1]; from C=CCCC(=O)O[C@H](c1ccccc1)[C@@H](C)N(C)C(=O)[C@@H](CC=C)NC(=O)OC(C)(C)C, toluene): 60%

SMILES: CCOCCNC(=O)C[C@@H]1C/C=C/CCC(=O)O[C@H](c2ccccc2)[C@H](C)N(C)C1=O [Example DR, 2-((2R,3S,6S,E)-3,4-dimethyl-5,12-dioxo-2-phenyl-1-oxa-4-azacyclododec-8-en-6-yl)-N-(2-ethoxyethyl)acetamide]
- IC50 (C3H10T1/2): > 100000 nM

SMILES: C[C@@H]1C/C=C/CCC(=O)N[C@H]2CCC[C@@H]2OC1=O
- ring closure, yield of all isomers ([1]; from C=CCCC(=O)N[C@H]1CCC[C@@H]1OC(=O)[C@H](C)CC=C, toluene): 25.5%

SMILES: C[C@H]1[C@@H](c2ccccc2)OC(=O)CC/C=C/C[C@@H](NC(=O)OCC2c3ccccc3-c3ccccc32)C(=O)N1C
- ring closure, yield of all isomers ([1]; from C=CCCC(=O)O[C@H](c1ccccc1)[C@H](C)N(C)C(=O)[C@@H](CC=C)NC(=O)OCC1c2ccccc2-c2ccccc21, toluene): 16%

SMILES: O=C1CCC=CCN(Cc2ccc(Cl)cc2)C(=O)OC[C@@H](c2ccccc2)N1
- ring closure, yield of all isomers ([1]; from C=CCCC(=O)N[C@@H](COC(=O)N(CC=C)Cc1ccc(Cl)cc1)c1ccccc1, toluene): 25%

SMILES: C[C@@H]1C/C=C/CCC(=O)O[C@H](c2ccccc2)CNC1=O [Compound BP, (2R,6R,E)-6-methyl-2-phenyl-1-oxa-4-azacyclododec-8-ene-5,12-dione]
- Kd (ShhN protein): > 100000 nM
- ring closure, yield of all isomers ([1]; from C=CCCC(=O)O[C@@H](CNC(=O)[C@H](C)CC=C)c1ccccc1, toluene): 79%

SMILES: C[C@@H]1C/C=C/CCC(=O)N[C@@H](C)COC1=O
- ring closure, yield of all isomers ([1]; from C=CCCC(=O)N[C@@H](C)COC(=O)[C@H](C)CC=C, toluene, 3 steps): 35%

SMILES: CN1C/C=C/CCC(=O)N[C@H](c2ccccc2)COC1=O
- ring closure, yield of all isomers ([1]; from C=CCCC(=O)N[C@@H](COC(=O)N(C)CC=C)c1ccccc1, DCM): 45%

SMILES: C[C@@H]1CC=CCCC(=O)N[C@@H](c2ccccc2)COC1=O
- ring closure, yield of all isomers ([1]; from C=CCCC(=O)N[C@H](COC(=O)[C@H](C)CC=C)c1ccccc1, toluene, 25.0 °C, 16.0 h): 72%

SMILES: C[C@H]1C/C=C/CCC(=O)OC[C@@H]2CCCN2C1=O
- ring closure, yield of all isomers ([1]; from C=CCCC(=O)OC[C@@H]1CCCN1C(=O)[C@@H](C)CC=C, toluene, 3 steps): 25%

SMILES: C[C@@H]1C/C=C/CCC(=O)OC[C@H]2CCCN2C1=O
- ring closure, yield of all isomers ([1]; from C=CCCC(=O)OC[C@H]1CCCN1C(=O)[C@H](C)CC=C, toluene, 3 steps): 20%

SMILES: C[C@@H]1C/C=C/C[C@H](C)C(=O)N[C@H](c2ccccn2)COC1=O
- ring closure, yield of all isomers ([1]; from C=CC[C@@H](C)C(=O)OC[C@H](NC(=O)[C@@H](C)CC=C)c1ccccn1, toluene): 89%

SMILES: CC(C)(C)OC(=O)N[C@@H]1C/C=C/CCC(=O)N[C@H](c2ccccc2)COC1=O
- ring closure, yield of all isomers ([1]; from C=CCCC(=O)N[C@@H](COC(=O)[C@@H](CC=C)NC(=O)OC(C)(C)C)c1ccccc1, Grubbs II, DCM, 20.0 mM, 25.0 °C, 3.0 h): 64%

SMILES: C[C@@H]1C/C=C/CCC(=O)OC[C@@H]2CCCN2C1=O [Example BD, (9R,14aS,E)-9-methyl-4,5,8,9,12,13,14,14a-octahydro-1H-pyrrolo[2,1-c][1,4]oxaazacyclododecine-3,10-dione]
- Kd (ShhN protein): 1000 to 100000 nM
- ring closure, yield of all isomers ([1]; from C=CCCC(=O)OC[C@@H]1CCCN1C(=O)[C@H](C)CC=C, toluene): 42%

SMILES: CS(=O)(=O)N[C@@H]1C/C=C/CCC(=O)N[C@H](c2ccccc2)COC1=O [Example A, N-((3R,11R,E)-5,12-dioxo-3-phenyl-1-oxa-4-azacyclododec-8-en-11yl)-methane sulfonamide]
- IC50 (C3H10T1/2): < 100 nM

SMILES: CC(C)(C)[Si](C)(C)O[C@@H]1C/C=C/CCC(=O)N[C@H](c2ccccc2)COC1=O
- ring closure, yield of all isomers ([1]; from C=CCCC(=O)N[C@@H](COC(=O)[C@@H](CC=C)O[Si](C)(C)C(C)(C)C)c1ccccc1, toluene): 65%

SMILES: O=C1CC/C=C/C[C@@H](Cc2ccc(Cl)cc2)C(=O)NC[C@@H](c2ccccc2)O1 [Example BQ, (2R,6S,E)-6-(4-chlorobenzyl)-2-phenyl-1-oxa-4-azacyclododec-8-ene-5,12-dione]
- Kd (ShhN protein): < 100 nM
- ring closure, yield of all isomers ([1]; from C=CCCC(=O)O[C@@H](CNC(=O)[C@@H](CC=C)Cc1ccc(Cl)cc1)c1ccccc1, toluene): 51%

SMILES: C[C@@H]1C/C=C/CCC(=O)N[C@H](c2ccccc2)CN(C)C1=O
- ring closure, yield of all isomers ([1]; from C=CCCC(=O)N[C@@H](CN(C)C(=O)[C@H](C)CC=C)c1ccccc1, toluene, 25.0 °C, 16.0 h): 68%
